Where a SMILES comes first, the peptide text is derived from it. Bridges are numbered along the chain shown (N, C = ends). [ ]: non-standard residue; d: D form. The star is where a group is joined. ξ: configuration not given here. Benzoyl(4-SiFtBu2) = CC(C)(C)[Si](F)(c1ccc(C(=O)*)cc1)C(C)(C)C; X1 = CC(C)(C)[Si](F)(c1ccc(C[N+](C)(C)CC(=O)*)cc1)C(C)(C)C; DO3AM = NC(=O)CN1CCN(CC(N)=O)CCN(CC(=O)*)CCN(CC(N)=O)CC1; ξW = NC(Cc1c[nH]c2ccccc12)C(=O)O; dDap = NC[C@@H](N)C(=O)O; ξF = NC(Cc1ccccc1)C(=O)O; ξD = NC(CC(=O)O)C(=O)O; ξDap = NCC(N)C(=O)O; ξC = NC(CS)C(=O)O
Tests used:
HSA = HSA (Homo sapiens, UniProt P02768); test: HSA binding by RIAC method (gel filtration, apparent molecular weight); assay type: in vitro ADME; details: HSA binding as apparent molecular weight, 700 μM HSA in PBS mobile phase
Experimental: A gel filtration column Superdex 75 Increase 10/300 GL (GE Healthcare, Uppsala, Sweden) was beforehand calibrated following the producer's recommendations with a commercially available gel filtration calibration kit (GE Healthcare, Buckinghamshire, UK) comprising conalbumin (MW: 75 kDa), ovalbumin (44 kDa), carbonic anhydrase (29 kDa), ribonuclease A (13.7 kDa) and aprotinin (6.5 kDa) as reference proteins of known molecular weight. AMSEC experiments were conducted using a constant flow rate of 0.8 mL/min at rt. A solution of HSA in PBS at physiological concentration (700 μM) was used as the mobile phase. SST2 ligands were labelled as described with molar activities of 10-20 GBq/μmol. Probes of 1.0 MBq of the radioligand were injected directly from the labelling solution. HSA binding was expressed as an apparent molecular weight MW calculated from the retention time of the radioligand using the determined calibration curve.
For evaluation, experimentally determined retention times tR are first converted into elution volumes Ve by multiplying with the flow rate and thereafter converted into partition coefficients Kav following the equation
where V0 is the column void volume (8.027 mL) and Vc is the geometric column volume (24 mL). Using the equation given by the trend line plot of the column calibration
the apparent molecular weight MW is calculated as […]

[1] = Octanol-water distribution coefficient (logD pH 7.4) of the labeled tracer; assay type: physicochemical; details: n-octanol/PBS pH 7.4, room temperature
Experimental: Approximately 1 MBq of the labeled tracer was dissolved in 1 mL of a 1:1 mixture (by volumes) of phosphate buffered saline (PBS, pH 7.4) and n-octanol in an Eppendorf tube. After vigorous mixing of the suspension for 3 minutes at room temperature, the vial was centrifuged at 15000 g for 5 minutes (Biofuge 15, Heraus Sepatech, Osterode, Germany) and 100 μL aliquots of both layers were measured in a gamma counter. The experiment was repeated at least six times.

SST2 = molecular target: T1, SST2 (Homo sapiens, UniProt P30874); test: Determination of IC50: competitive binding against [125I]TOC on SST2-transfected CHO cells; details: [125I]TOC reference radioligand, 60 min room temperature
T1 construct: expressed in transfected cells; host or cells: CHO (Chinese hamster ovary) cells
T1 sequence (P30874 whole entry, species assumed): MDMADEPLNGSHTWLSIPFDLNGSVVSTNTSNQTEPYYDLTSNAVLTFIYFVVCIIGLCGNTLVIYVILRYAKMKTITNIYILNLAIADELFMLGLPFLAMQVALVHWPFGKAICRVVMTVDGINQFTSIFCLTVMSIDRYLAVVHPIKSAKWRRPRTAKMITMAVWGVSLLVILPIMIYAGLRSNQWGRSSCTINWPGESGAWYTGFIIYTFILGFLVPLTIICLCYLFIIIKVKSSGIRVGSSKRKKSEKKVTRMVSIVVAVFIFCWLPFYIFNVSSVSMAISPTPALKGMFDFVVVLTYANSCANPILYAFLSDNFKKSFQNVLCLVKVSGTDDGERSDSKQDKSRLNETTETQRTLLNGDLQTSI

Chain of HSA (P02768 25-609): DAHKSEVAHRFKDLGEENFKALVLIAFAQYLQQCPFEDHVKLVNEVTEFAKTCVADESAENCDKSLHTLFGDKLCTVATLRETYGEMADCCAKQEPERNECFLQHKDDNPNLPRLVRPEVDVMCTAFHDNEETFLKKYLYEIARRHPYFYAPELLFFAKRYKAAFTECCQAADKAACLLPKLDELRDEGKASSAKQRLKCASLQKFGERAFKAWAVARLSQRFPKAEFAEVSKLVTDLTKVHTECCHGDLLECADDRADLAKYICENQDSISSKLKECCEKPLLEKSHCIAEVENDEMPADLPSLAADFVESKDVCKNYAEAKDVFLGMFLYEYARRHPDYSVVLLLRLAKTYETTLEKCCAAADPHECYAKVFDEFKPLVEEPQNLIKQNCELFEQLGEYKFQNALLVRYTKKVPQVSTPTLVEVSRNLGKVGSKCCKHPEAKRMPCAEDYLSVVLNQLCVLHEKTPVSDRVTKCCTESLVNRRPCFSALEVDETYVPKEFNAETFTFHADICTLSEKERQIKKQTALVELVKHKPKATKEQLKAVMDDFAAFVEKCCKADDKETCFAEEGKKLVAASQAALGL

| Structure (SMILES) | HSA (HSA) [kDa] | LogDpH=7.4 [1] | IC50 (SST2) [nM] | LogDpH=7.4 ([1]; listed as 36) |
| --- | --- | --- | --- | --- |
| C[C@@H](O)[C@H](NC(=O)C1CSSCC(NC(=O)C(Cc2ccccc2)NC(=O)COCCOCCNC(=O)C(CC(=O)O)NC(=O)[C@@H](CC(=O)O)NC(=O)C(CNC(=O)CN2CCN(CC(=O)O)CCN(CC(=O)O)CCN(CC(=O)O)CC2)NC(=O)[C@@H](CN)NC(=O)c2ccc([Si](F)(C(C)(C)C)C(C)(C)C)cc2)C(=O)N[C@@H](Cc2ccc(O)cc2)C(=O)NC(Cc2c[nH]c3ccccc23)C(=O)N[C@@H](CCCCN)C(=O)N[C@@H]([C@@H](C)O)C(=O)N1)C(=O)O (stereo partly drawn) (natGa complex, metal not drawn) [[Ga]23] | 18.59 | −1.86 ± 0.06 |  |  |
| C[C@@H](O)[C@H](NC(=O)C1CSSCC(NC(=O)C(Cc2ccccc2)NC(=O)CNC(=O)CNC(=O)CNC(=O)C(CC(=O)O)NC(=O)[C@@H](CC(=O)O)NC(=O)C(CNC(=O)CN2CCN(CC(=O)O)CCN(CC(=O)O)CCN(CC(=O)O)CC2)NC(=O)CNC(=O)C[N+](C)(C)Cc2ccc([Si](F)(C(C)(C)C)C(C)(C)C)cc2)C(=O)N[C@@H](Cc2ccc(O)cc2)C(=O)NC(Cc2c[nH]c3ccccc23)C(=O)N[C@@H](CCCCN)C(=O)N[C@@H]([C@@H](C)O)C(=O)N1)C(=O)O (stereo partly drawn) (natGa complex, metal not drawn) [[Ga]60] |  | −2.24 ± 0.05 | 4.15 ± 0.79 |  |
| C[C@@H](O)[C@H](NC(=O)C1CSSCC(NC(=O)C(Cc2ccccc2)NC(=O)CNC(=O)CNC(=O)[C@@H](CC(=O)O)NC(=O)C(CC(=O)O)NC(=O)[C@@H](CNC(=O)CN2CCN(CC(N)=O)CCN(CC(N)=O)CCN(CC(N)=O)CC2)NC(=O)C(CN)NC(=O)c2ccc([Si](F)(C(C)(C)C)C(C)(C)C)cc2)C(=O)N[C@@H](Cc2ccc(O)cc2)C(=O)NC(Cc2c[nH]c3ccccc23)C(=O)N[C@@H](CCCCN)C(=O)N[C@@H]([C@@H](C)O)C(=O)N1)C(=O)O (stereo partly drawn) [Ligand 36] ({Benzoyl(4-SiFtBu2)}-[ξDap][dDap](DO3AM)[ξD][dD]GG[ξF][ξC]Y[ξW]KT[ξC]T-OH; disulfide 8-13) |  |  | 7.05 ± 1.61 | −1.41 ± 0.07 |
| C[C@@H](O)[C@H](NC(=O)C1CSSCC(NC(=O)C(Cc2ccccc2)NC(=O)CNC(=O)CNC(=O)[C@@H](CC(=O)O)NC(=O)C(CC(=O)O)NC(=O)[C@@H](CNC(=O)CN2CCN(CC(=O)O)CCN(CC(=O)O)CCN(CC(=O)O)CC2)NC(=O)C(CN)NC(=O)c2ccc([Si](F)(C(C)(C)C)C(C)(C)C)cc2)C(=O)N[C@@H](Cc2ccc(O)cc2)C(=O)NC(Cc2c[nH]c3ccccc23)C(=O)N[C@@H](CCCCN)C(=O)N[C@@H]([C@@H](C)O)C(=O)N1)C(=O)O (stereo partly drawn) [[Ga]19] | 21.17 | −2.11 ± 0.04 |  |  |
| C[C@@H](O)[C@H](NC(=O)C1CSSCC(NC(=O)C(Cc2ccccc2)NC(=O)CNC(=O)CNC(=O)[C@@H](CC(=O)O)NC(=O)C(CC(=O)O)NC(=O)[C@@H](CNC(=O)CC[C@H](C(=O)O)N2CCN(CC(=O)O)CCN(CC(=O)O)CCN(CC(=O)O)CC2)NC(=O)C(CN)NC(=O)c2ccc([Si](F)(C(C)(C)C)C(C)(C)C)cc2)C(=O)N[C@@H](Cc2ccc(O)cc2)C(=O)NC(Cc2c[nH]c3ccccc23)C(=O)N[C@@H](CCCCN)C(=O)N[C@@H]([C@@H](C)O)C(=O)N1)C(=O)O (stereo partly drawn) [[Ga]20] | 21.49 | −2.16 ± 0.04 |  |  |
| C[C@@H](O)[C@H](NC(=O)C1CSSCC(NC(=O)C(Cc2ccccc2)NC(=O)CNC(=O)CNC(=O)[C@@H](CC(=O)O)NC(=O)C(CC(=O)O)NC(=O)[C@@H](CNC(=O)CN2CCN(CC(=O)O)CCN(CC(=O)O)CCN(CC(=O)O)CC2)NC(=O)C[N+](C)(C)Cc2ccc([Si](F)(C(C)(C)C)C(C)(C)C)cc2)C(=O)N[C@@H](Cc2ccc(O)cc2)C(=O)NC(Cc2c[nH]c3ccccc23)C(=O)N[C@@H](CCCCN)C(=O)N[C@@H]([C@@H](C)O)C(=O)N1)C(=O)O (stereo partly drawn) [[Ga]24] | 8.77 | −1.92 ± 0.03 |  |  |
| C[C@@H](O)[C@H](NC(=O)C1CSSCC(NC(=O)C(Cc2ccccc2)NC(=O)CNC(=O)CNC(=O)CNC(=O)C(CC(=O)O)NC(=O)[C@@H](CC(=O)O)NC(=O)C(CNC(=O)C[N+](C)(C)Cc2ccc([Si](F)(C(C)(C)C)C(C)(C)C)cc2)NC(=O)CN2CCN(CC(=O)O)CCN(CC(=O)O)CCN(CC(=O)O)CC2)C(=O)N[C@@H](Cc2ccc(O)cc2)C(=O)NC(Cc2c[nH]c3ccccc23)C(=O)N[C@@H](CCCCN)C(=O)N[C@@H]([C@@H](C)O)C(=O)N1)C(=O)O (stereo partly drawn) [[Ga]44] | 6.99 | −2.06 ± 0.08 |  |  |
| C[C@@H](O)[C@H](NC(=O)C1CSSCC(NC(=O)C(Cc2ccccc2)NC(=O)CNC(=O)CNC(=O)CNC(=O)C(CC(=O)O)NC(=O)[C@@H](CC(=O)O)NC(=O)C(CCCCN)NC(=O)[C@@H](CNC(=O)C[N+](C)(C)Cc2ccc([Si](F)(C(C)(C)C)C(C)(C)C)cc2)NC(=O)CN2CCN(CC(=O)O)CCN(CC(=O)O)CCN(CC(=O)O)CC2)C(=O)N[C@@H](Cc2ccc(O)cc2)C(=O)NC(Cc2c[nH]c3ccccc23)C(=O)N[C@@H](CCCCN)C(=O)N[C@@H]([C@@H](C)O)C(=O)N1)C(=O)O (stereo partly drawn) [[Ga]45] | 7.76 | −2.10 ± 0.04 |  |  |
| C[C@@H](O)[C@H](NC(=O)C1CSSCC(NC(=O)C(Cc2ccccc2)NC(=O)CNC(=O)CNC(=O)CNC(=O)C(CC(=O)O)NC(=O)[C@@H](CC(=O)O)NC(=O)C(CCCNC(N)=O)NC(=O)[C@@H](CNC(=O)C[N+](C)(C)Cc2ccc([Si](F)(C(C)(C)C)C(C)(C)C)cc2)NC(=O)CN2CCN(CC(=O)O)CCN(CC(=O)O)CCN(CC(=O)O)CC2)C(=O)N[C@@H](Cc2ccc(O)cc2)C(=O)NC(Cc2c[nH]c3ccccc23)C(=O)N[C@@H](CCCCN)C(=O)N[C@@H]([C@@H](C)O)C(=O)N1)C(=O)O (stereo partly drawn) [[Ga]46] | 6.81 | −2.22 ± 0.03 |  |  |
| C[C@@H](O)[C@H](NC(=O)C1CSSCC(NC(=O)C(Cc2ccccc2)NC(=O)CNC(=O)CNC(=O)CNC(=O)C(CC(=O)O)NC(=O)[C@@H](CC(=O)O)NC(=O)C(CCC(=O)O)NC(=O)[C@@H](CNC(=O)C[N+](C)(C)Cc2ccc([Si](F)(C(C)(C)C)C(C)(C)C)cc2)NC(=O)CN2CCN(CC(=O)O)CCN(CC(=O)O)CCN(CC(=O)O)CC2)C(=O)N[C@@H](Cc2ccc(O)cc2)C(=O)NC(Cc2c[nH]c3ccccc23)C(=O)N[C@@H](CCCCN)C(=O)N[C@@H]([C@@H](C)O)C(=O)N1)C(=O)O (stereo partly drawn) [[Ga]47] | 7.66 | −2.30 ± 0.02 |  |  |
| C[C@@H](O)[C@H](NC(=O)C1CSSCC(NC(=O)C(Cc2ccccc2)NC(=O)[C@@H](CC(N)=O)NC(=O)C(CC(N)=O)NC(=O)[C@@H](CC(=O)O)NC(=O)C(CC(=O)O)NC(=O)[C@@H](CNC(=O)CN2CCN(CC(=O)O)CCN(CC(=O)O)CCN(CC(=O)O)CC2)NC(=O)C[N+](C)(C)Cc2ccc([Si](F)(C(C)(C)C)C(C)(C)C)cc2)C(=O)N[C@@H](Cc2ccc(O)cc2)C(=O)NC(Cc2c[nH]c3ccccc23)C(=O)N[C@@H](CCCCN)C(=O)N[C@@H]([C@@H](C)O)C(=O)N1)C(=O)O (stereo partly drawn) [[Ga]48] | 8.11 | −2.10 ± 0.05 |  |  |
| C[C@@H](O)[C@H](NC(=O)C1CSSCC(NC(=O)C(Cc2ccccc2)NC(=O)CNC(=O)CNC(=O)CNC(=O)C(CC(=O)O)NC(=O)[C@@H](CC(=O)O)NC(=O)C(CNC(=O)CN2CCN(CC(N)=O)CCN(CC(N)=O)CCN(CC(N)=O)CC2)NC(=O)C[N+](C)(C)Cc2ccc([Si](F)(C(C)(C)C)C(C)(C)C)cc2)C(=O)N[C@@H](Cc2ccc(O)cc2)C(=O)NC(Cc2c[nH]c3ccccc23)C(=O)N[C@@H](CCCCN)C(=O)N[C@@H]([C@@H](C)O)C(=O)N1)C(=O)O (stereo partly drawn) [[Pb]54] (X1-[ξDap](DO3AM)[dD][ξD]GGG[ξF][ξC]Y[ξW]KT[ξC]T-OH; disulfide 8-13) |  | −1.86 ± 0.04 | 4.24 ± 0.68 |  |

— US20240317780A1, “RADIOPHARMACEUTICAL SOMATOSTATIN RECEPTOR LIGANDS AND PRECURSORS THEREOF” (Technische Universität München, priority 2021, published 2024)
